Tests used:
delF508-CFTR-HRP = target: T1, delF508-CFTR-HRP (Homo sapiens, UniProt P13569, DEL508-508); assay: Measurement of delF508-CFTR-HRP surface expression in CFBE41o- cells (HRP luminescence); format: cell-based; details: for Emax: CFBE41o-, read-out: DelF508-CFTR-HRP Amax %; for EC50: mean of at least two replicates;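 for DelF508-CFTR-HRP Amax %: percent efficacy relative to a reference CFTR corrector compound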
T1 construct: expressed in transfected cells
In short: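 Stably transfected CFBE41o- cells carrying HRP in the fourth extracellular loop of delF508-CFTR, induced with 500 ng/mL doxycycline for 48 h, then compound-treated 24 h at 37° C (10-point, 3-fold, top 10 μM). Surface HRP detected by luminescent substrate; EC50 from logistic fit, triplicates, normalized to lowest-concentration median.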

delF508-CFTR = target: T2, delF508-CFTR (Homo sapiens, UniProt P13569, DEL508-508); assay: delF508-CFTR functional activity in primary human bronchial epithelial cells (HBECs), Multi-Transepithelial Clamp Circuit (MTECC-24) assay, equivalent short circuit current; format: cell-based; details: primary CF HBECs; for MTECC24 CFHBEC-Amax %: relative to reference combination 2 μM 3-(6-(1-(2,2-difluorobenzo[d][1,3]dioxol-5-yl)cyclopropane-1-carboxamido)-3-methylpyridin-2-yl)benzoic acid (24 h) + 0.5 μM N-(2,4-di-tert-butyl-5-hydroxyphenyl)-4-oxo-1,4-dihydroquinoline-3-carboxamide; for EC50: test compound added 24 h before assay, potentiator (S)-3-amino-6-methoxy-N-(3,3,3-trifluoro-2-hydroxy-2-methylpropyl)-5-(trifluoromethyl)picolinamide present at assay, mean of at least two replicates, read-out: MTECC24 CFHBEC-EC50
T2 construct: functional activity of the CFTR channel (Chloride ion transport) in patient derived primary human bronchial epithelial cells; host or cells: patient-derived primary human bronchial epithelial cells (HBECs), delF508-CFTR
In short: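 Patient-derived delF508 HBECs, grown at air-liquid interface about two weeks, were corrected with compound basolaterally for 24 h. Compound was then re-added apically and basolaterally in HEPES pH7.4 assay medium, with sequential modulators including forskolin and the picolinamide potentiator. Ieq was recorded, normalised to 0.1% DMSO wells, and EC50 fitted from 10-point curves.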

T2 sequence (P13569 with tags, fused parts or gaps DEL508-508): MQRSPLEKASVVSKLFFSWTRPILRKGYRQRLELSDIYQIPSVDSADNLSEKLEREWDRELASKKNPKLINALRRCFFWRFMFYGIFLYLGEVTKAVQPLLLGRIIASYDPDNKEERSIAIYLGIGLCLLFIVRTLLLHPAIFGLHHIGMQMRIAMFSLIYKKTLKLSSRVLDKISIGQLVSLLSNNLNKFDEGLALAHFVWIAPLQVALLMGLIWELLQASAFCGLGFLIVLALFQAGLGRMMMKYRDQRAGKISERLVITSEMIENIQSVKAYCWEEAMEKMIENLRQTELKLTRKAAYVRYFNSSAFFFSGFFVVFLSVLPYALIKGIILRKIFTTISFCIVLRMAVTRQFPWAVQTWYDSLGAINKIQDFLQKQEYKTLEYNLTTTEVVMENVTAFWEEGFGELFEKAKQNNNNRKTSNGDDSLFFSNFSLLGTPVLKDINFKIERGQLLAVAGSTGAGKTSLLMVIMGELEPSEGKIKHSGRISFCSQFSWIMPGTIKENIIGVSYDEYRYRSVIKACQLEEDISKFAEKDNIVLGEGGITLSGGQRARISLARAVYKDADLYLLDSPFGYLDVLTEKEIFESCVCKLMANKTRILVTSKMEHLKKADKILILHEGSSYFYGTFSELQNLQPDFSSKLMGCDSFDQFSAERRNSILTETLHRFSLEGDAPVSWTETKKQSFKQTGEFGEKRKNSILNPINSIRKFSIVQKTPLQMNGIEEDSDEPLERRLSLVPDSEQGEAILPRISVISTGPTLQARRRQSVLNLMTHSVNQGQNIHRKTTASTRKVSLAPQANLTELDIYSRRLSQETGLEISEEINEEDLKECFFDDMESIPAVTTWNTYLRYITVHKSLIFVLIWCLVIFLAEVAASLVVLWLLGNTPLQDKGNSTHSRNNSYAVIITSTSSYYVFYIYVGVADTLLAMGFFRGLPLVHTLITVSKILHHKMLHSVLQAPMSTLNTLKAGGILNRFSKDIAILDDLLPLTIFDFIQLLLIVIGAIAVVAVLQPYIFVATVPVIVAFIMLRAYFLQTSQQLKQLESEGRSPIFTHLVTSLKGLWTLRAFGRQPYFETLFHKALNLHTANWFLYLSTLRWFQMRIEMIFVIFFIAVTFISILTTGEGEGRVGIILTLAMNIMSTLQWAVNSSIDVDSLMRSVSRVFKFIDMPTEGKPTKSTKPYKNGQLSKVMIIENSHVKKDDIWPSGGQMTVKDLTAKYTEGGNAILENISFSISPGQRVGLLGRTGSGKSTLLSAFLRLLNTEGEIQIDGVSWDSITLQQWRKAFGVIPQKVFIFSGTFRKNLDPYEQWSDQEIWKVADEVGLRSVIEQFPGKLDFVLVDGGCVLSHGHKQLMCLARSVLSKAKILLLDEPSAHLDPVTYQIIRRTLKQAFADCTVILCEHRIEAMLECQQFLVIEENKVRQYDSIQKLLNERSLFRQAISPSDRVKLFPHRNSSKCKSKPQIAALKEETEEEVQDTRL
T1 sequence (P13569 with tags, fused parts or gaps DEL508-508): as above

SMILES | Emax (delF508-CFTR-HRP) [%] | EC50 (delF508-CFTR-HRP) [nM] | MTECC24 CFHBEC-Amax % (delF508-CFTR) [%] | EC50 (delF508-CFTR) [nM]
Cc1ccc(C2CCCCC2)c(OC2(C(=O)NS(=O)(=O)c3cccc(N4CCNC(=O)CC4)n3)CC2)c1 [Example 2-40, 1-(2-Cyclohexyl-5-methylphenoxy)-N-((6-(5-oxo-1,4-diazepan-1-yl)pyridin-2-yl)sulfonyl)cyclopropanecarboxamide] | 123 | 3790 | 76 | 121
Cc1ccc(C2CCCCC2)c(OC2(C(=O)NS(=O)(=O)c3cccc(N4CCC(N)CC4)n3)CC2)c1 [Example 2-41, N-((6-(4-Aminopiperidin-1-yl)pyridin-2-yl)sulfonyl)-1-(2-cyclohexyl-5-methylphenoxy)cyclopropanecarboxamide] | 142 | 2960 | 54 | 654
Cc1ccc(C2CCCCC2)c(OC2(C(=O)NS(=O)(=O)c3cccc(N4CCC(CF)(NC(=O)OC(C)(C)C)CC4)n3)CC2)c1 [Example 2-42, Tert-butyl (1-(6-(N-(1-(2-cyclohexyl-5-methylphenoxy)cyclopropanecarbonyl)sulfamoyl)pyridin-2-yl)-4-(fluoromethyl)piperidin-4-yl)carbamate] | 284 | 880 | 90 | 6
Cc1ccc(C2CCCCC2)c(OC2(C(=O)NS(=O)(=O)c3cccc(NCC(C)O)n3)CC2)c1 (stereo not shown) [Example 2-45, 1-(2-Cyclohexyl-5-methylphenoxy)-N-((6-((2-hydroxypropyl)amino)pyridin-2-yl)sulfonyl)cyclopropane-1-carboxamide] | 816 | 2230 | 95 | 6
Cc1ccc(C2CCCCC2)c(OC2(C(=O)NS(=O)(=O)c3cccc(NC[C@@H](C)O)n3)CC2)c1 [Example 2-46, (R)-1-(2-cyclohexyl-5-methylphenoxy)-N-((6-((2-hydroxypropyl)amino)pyridin-2-yl)sulfonyl)cyclopropane-1-carboxamide] | 813 | 2860 | 89 | 3
Cc1ccc(C2CCCCC2)c(OC2(C(=O)NS(=O)(=O)c3cccc(NC[C@H](C)O)n3)CC2)c1 [Example 2-47, (S)-1-(2-Cyclonexyl-5-methylphenoxy)-N-((6-((2-hydroxypropyl)amino)pyridin-2-yl)sulfonyl)cyclopropane-1-carboxamide] | 747 | 2420 | 97 | 6
Cc1ccc(C2CCCCC2)c(OC2(C(=O)NS(=O)(=O)c3cccc(N(C)CC(C)O)n3)CC2)c1 (stereo not shown) [Example 2-48] | 620 | 2020 | 93 | 4
Cc1ccc(C2CCCCC2)c(OC2(C(=O)NS(=O)(=O)c3cccc(N4CCC(C)(O)CC4)n3)CC2)c1 [Example 2-49, 1-(2-Cyclohexyl-5-methylphenoxy)-N-((6-(4-hydroxy-4-methylpiperidin-1-yl)pyridin-2-yl)sulfonyl)cyclopropane-1-carboxamide] | 391 | 1050 | 102 | 5
Cc1ccc(C2CCCCC2)c(OC2(C(=O)NS(=O)(=O)c3cccc(N4CC(C)(NC(=O)OC(C)(C)C)C4)n3)CC2)c1 [Example 2-50, Tert-butyl (1-(6-(N-(1-(2-cyclohexyl-5-methylphenoxy)cyclopropane-1-carbonyl)sulfamoyl)pyridin-2-yl)-3-methylazetidin-3-yl)carbamate] | 628 | 1270 | 93 | 4
Cc1ccc(C2CCCCC2)c(OC2(C(=O)NS(=O)(=O)c3cccc(N4CCOC(C)C4)n3)CC2)c1 (stereo not shown) [Example 2-51, 1-(2-Cyclohexyl-5-methylphenoxy)-N-((6-(2-methylmorpholino)pyridin-2-yl)sulfonyl)cyclopropane-1-carboxamide] | 621 | 1760 | 85 | 3
Cc1ccc(C2CCCCC2)c(OC2(C(=O)NS(=O)(=O)c3cccc(N4CCO[C@@H](C)C4)n3)CC2)c1 [Example 2-52, (S)-1-(2-Cyclohexyl-5-methylphenoxy)-N-((6-(2-methylmorpholino)pyridin-2-yl)sulfonyl)cyclopropane-1-carboxamide] | 416 | 1290 | 75 | 7
Cc1ccc(C2CCCCC2)c(OC2(C(=O)NS(=O)(=O)c3cccc(N4CCO[C@H](C)C4)n3)CC2)c1 [Example 2-53, (R)-1-(2-Cyclohexyl-5-methylphenoxy)-N-((6-(2-methylmorpholino)pyridin-2-yl)sulfonyl)cyclopropane-1-carboxamide] | 416 | 1590 | 82 | 2
Cc1ccc(C2CCCCC2)c(OC2(C(=O)NS(=O)(=O)c3cccc(N4CCN(c5ccccc5)CC4)n3)CC2)c1 [Example 2-54, 1-(2-Cyclohexyl-5-methylphenoxy)-N-((6-(4-phenylpiperazin-1-yl)pyridin-2-yl)sulfonyl)cyclopropane-1-carboxamide] | 513 | 650 | 70 | 14
Cc1ccc(C2CCCCC2)c(OC2(C(=O)NS(=O)(=O)c3cccc(N4CCN(c5ccc(F)cc5)CC4)n3)CC2)c1 [Example 2-55, 1-(2-Cyclohexyl-5-methylphenoxy)-N-((6-(4-(4-fluorophenyl)piperazin-1-yl)pyridin-2-yl)sulfonyl)cyclopropane-1-carboxamide] | 512 | 640 | 91 | 13
Cc1ccc(S(=O)(=O)N2CC3(CCN3c3cccc(S(=O)(=O)NC(=O)C4(Oc5cc(C)ccc5C5CCCCC5)CC4)n3)C2)cc1 [Example 2-56, 1-(2-Cyclohexyl-5-methylphenoxy)-N-((6-(6-tosyl-1,6-diazaspiro[3.3]heptan-1-yl)pyridin-2-yl)sulfonyl)cyclopropane-1-carboxamide] | 381 | 2510 | 83 | 40
O=C(NS(=O)(=O)c1cccc(N2CC(O)C2)n1)C1(Oc2cc(Cl)ccc2C2CCCCC2)CC1 [Example 2-57, 1-(5-Chloro-2-cyclohexylphenoxy)-N-((6-(3-hydroxyazetidin-1-yl)pyridin-2-yl)sulfonyl)cyclopropane-1-carboxamide] | 328 | 3080 | 102 | 12
Cc1ccc(C2CCC(F)(F)CC2)c(OC2(C(=O)NS(=O)(=O)c3cccc(N4CCC5(CC4)CC(=O)c4cc(F)ccc4N5)n3)CC2)c1 [Example 3-1, 1-(2-(4,4-Difluorocyclohexyl)-5-methylphenoxy)-N-((6-(6′-fluoro-4′-oxo-3′,4′-dihydro-1′H-spiro[piperidine-4,2′-quinolin]-1-yl)pyridin-2-yl)sulfonyl)cyclopropanecarboxamide] | 184 | 3070 | 34 | 28
C[C@@H](CO)Nc1cccc(S(=O)(=O)NC(=O)C2(Oc3cc(F)ccc3C3CCC(F)(F)CC3)CC2)n1 [Example 3-2] | 172 | 4420 | 48 | 371
Cc1ccc(C2CCC(F)(F)CC2)c(OC2(C(=O)NS(=O)(=O)c3cccc(NC[C@@H](C)O)n3)CC2)c1 [Example 3-4, (R)-1-(2-(4,4-Difluorocyclohexyl)-5-methylphenoxy)-N-((6-((2-hydroxypropyl)amino)pyridin-2-yl)sulfonyl)cyclopropane-1-carboxamide] | 318 | 3850 | 87 | 92
Cc1ccc(C2CCC(F)(F)CC2)c(OC2(C(=O)NS(=O)(=O)c3cccc(N[C@H](C)CO)n3)CC2)c1 [Example 3-5] | 363 | 3970 | 64 | 52
Cc1ccc(C2CCC(F)(F)CC2)c(OC2(C(=O)NS(=O)(=O)c3cccc(N4CC(C)(NC(=O)OC(C)(C)C)C4)n3)CC2)c1 [Example 3-6, Tert-butyl (1-(6-(N-(1-(2-(4,4-difluorocyclohexyl)-5-methylphenoxy)cyclopropane-1-carbonyl)sulfamoyl)pyridin-2-yl)-3-methylazetidin-3-yl)carbamate] | 380 | 2660 | 57 | 57
COc1ccc(C2CCC(F)(F)CC2)c(OC2(C(=O)NS(=O)(=O)c3cccc(N4CCC[C@H](CO)C4)n3)CC2)c1 [Example 3-7, (S)-1-(2-(4,4-Difluorocyclohexyl)-5-methoxyphenoxy)-N-((6-(3-(hydroxymethyl)piperidin-1-yl)pyridin-2-yl)sulfonyl)cyclopropane-1-carboxamide] | 258 | 3410 | 51 | 35
